Measurements from US5962502A, “Polyamidic acid derivatives with antigastrin activity, a method for their preparation, and their pharmaceutical use” (priority 1993, dated 1999).
Where “and” joins values, the source holds several entries; their conditions need not be identical. Equal values may be shown once.

What was measured:
[1] = tested on: acid secretion induced by pentagastrin; experiment: Acid secretion induced by pentagastrin in the anaesthetized rat; assay type: in vivo; settings: for ED50: iv, 1 h, I.V. bolus, pentagastrin 30 mcg/kg/h, read-out: Activity (ID50), inhibition of the acid secretion induced by pentagastrin
Method: The activity of the compounds of the invention against gastric secretion performed by means of a mechanism with an antigastrin effect, was examined in vivo in anaesthetized rats with the use of male animals weighing about 200 g. Gastric secretion was stimulated with pentagastrin and Lai's method [Gut 5, (1964), 327-341 ] was used, with slight modification.
After tracheotomy, the oesophagus and duodenum were cannulated. A tepid solution (37° C.) of 0.25 mM NaOH was perfused and was passed through the stomach by means of a peristaltic pump at a constant flow-rate of 1 ml/minute. After stabilization for 20 minutes, the stimulant, dissolved in a physiological solution, was perfused for 120 minutes at a dose of 30 mcg/kg/h, in a volume of 0.95 ml/hour. After perfusion for 60 minutes (the basal stimulation), the product under test was administered intravenously (I.V.) as a bolus and perfusion of the stimulant was continued for a further 60 minutes. The acid secretion was recorded continuously as a function of time.
The activity of the product was evaluated as the percentage reduction of secreted acidity after the administration of the product, in comparison with the basal acidity measured during the first 60 minutes of collection in the presence of pentagastrin alone.
The antagonistic compounds tested were administered in various doses so that an ID50, that is, the dose (in mg/kg I.V.) which could inhibit the effect of pentagastrin by 50%, could be calculated.

CCK-A = biological target: T1, CCK-A (Cavia porcellus, UniProt Q63931); experiment: Anti-CCK-A activity on guinea-pig gall bladder stimulated in vitro by CCK-8; settings: for Ratio I/II (CCK-A IC50 / CCK-B IC50): gall bladder IC50 over gastric mucous cells IC50; for IC50: guinea-pig gall bladder in vitro, CCK-8 10 ng/ml, read-out: CCK-A-antagonistic activity IC50 (I)
T1 construct: A longitudinal strip of guinea-pig gall-bladder was put in a bath for isolated organs; from tissue; host or cells: guinea-pig gall bladder longitudinal strip
T1 sequence (Q63931 1-430): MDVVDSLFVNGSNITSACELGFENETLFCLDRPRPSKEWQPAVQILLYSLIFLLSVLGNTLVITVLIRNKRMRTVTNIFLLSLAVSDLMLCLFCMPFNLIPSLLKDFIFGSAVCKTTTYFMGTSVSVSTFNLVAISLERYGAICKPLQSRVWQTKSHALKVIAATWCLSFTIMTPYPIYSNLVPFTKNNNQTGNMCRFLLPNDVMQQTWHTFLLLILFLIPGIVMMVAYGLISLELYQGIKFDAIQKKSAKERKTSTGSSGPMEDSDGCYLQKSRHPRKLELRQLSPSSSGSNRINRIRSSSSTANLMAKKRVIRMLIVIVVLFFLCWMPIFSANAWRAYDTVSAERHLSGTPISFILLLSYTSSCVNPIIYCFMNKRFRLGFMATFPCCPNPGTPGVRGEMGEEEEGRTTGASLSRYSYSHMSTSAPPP
Method: The experimental model used was guinea-pig gall bladder stimulated in vitro by CCK-8, with the use of lorglumide as the reference standard. A longitudinal strip of guinea-pig gall-bladder was put in a bath for isolated organs in the presence of Krebs buffer at a temperature of 32° C., with continuous oxygenation with an oxygen-CO2 mixture (95-[…]). The isometric contractions were detected by means of a force transducer and recorded.

central CCK-B receptor = biological target: T2, central CCK-B receptor (Cavia porcellus, UniProt H0VZC5); experiment: Inhibition of the binding of [3-H][N-methyl-N-leucine]CCK-8 to guinea-pig cortical membranes; settings: for IC50 / inhibition of the binding of [N-methyl-N-leucine]CCK-8, result in words: guinea-pig cortical membranes; for IC50: 150 minutes at 25° C.
T2 construct: Cerebral cortices of male white guinea-pigs were thus used; from tissue; host or cells: cerebral cortex membranes of male white guinea-pigs
T2 sequence (H0VZC5 1-426): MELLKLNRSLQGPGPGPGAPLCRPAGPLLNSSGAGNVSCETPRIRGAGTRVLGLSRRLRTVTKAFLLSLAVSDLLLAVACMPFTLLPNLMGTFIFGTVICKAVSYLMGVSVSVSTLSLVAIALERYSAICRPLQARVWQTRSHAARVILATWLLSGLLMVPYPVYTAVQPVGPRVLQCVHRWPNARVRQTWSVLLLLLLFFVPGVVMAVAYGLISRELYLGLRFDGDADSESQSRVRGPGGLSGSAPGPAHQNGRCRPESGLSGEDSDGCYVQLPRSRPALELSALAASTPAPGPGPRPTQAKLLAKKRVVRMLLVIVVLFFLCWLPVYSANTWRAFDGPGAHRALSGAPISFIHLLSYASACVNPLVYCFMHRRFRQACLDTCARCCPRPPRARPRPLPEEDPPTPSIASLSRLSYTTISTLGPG
In short: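 Male guinea-pig cerebral cortex membranes (about 300 mcg protein/ml) incubated with non-sulphated [3-H]-labelled CCK-8 tracer and compound 150 minutes at 25° C. Pellet radioactivity counted by liquid scintillation; nonspecific binding defined with 5.10^-6 M CCK-8.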

[2] = biological target: T3, gastrin receptors or type-B cholecystokinin (CCK-B) receptors (Oryctolagus cuniculus, UniProt P46627); experiment: Inhibition of the gastrin-induced increase of cytosolic calcium in rabbit gastric mucous-membrane cells (Fura 2); assay type: cell-based; settings: for Ratio IC50 Binding cortex / IC50 (gastric mucous cells): binding values taken from Table 3; for IC50, inhibition of the increase of cytosolic calcium: rabbit gastric mucous cells enriched in parietal cells, gastrin 5×10^-8; for CCK-B-antagonistic activity IC50 (II): data taken from Table 4 (rabbit gastric mucous cells), reprinted in Table 6; for IC50 order of magnitude, peripheral antigastrin activity: rabbit gastric mucous cells
T3 construct: Rabbit gastric mucous-membrane cells were prepared by conventional techniques; endogenous in cells; host or cells: freshly isolated rabbit gastric mucosal cells, enriched by elutriation to about 70% parietal cells
T3 sequence (P46627 1-452): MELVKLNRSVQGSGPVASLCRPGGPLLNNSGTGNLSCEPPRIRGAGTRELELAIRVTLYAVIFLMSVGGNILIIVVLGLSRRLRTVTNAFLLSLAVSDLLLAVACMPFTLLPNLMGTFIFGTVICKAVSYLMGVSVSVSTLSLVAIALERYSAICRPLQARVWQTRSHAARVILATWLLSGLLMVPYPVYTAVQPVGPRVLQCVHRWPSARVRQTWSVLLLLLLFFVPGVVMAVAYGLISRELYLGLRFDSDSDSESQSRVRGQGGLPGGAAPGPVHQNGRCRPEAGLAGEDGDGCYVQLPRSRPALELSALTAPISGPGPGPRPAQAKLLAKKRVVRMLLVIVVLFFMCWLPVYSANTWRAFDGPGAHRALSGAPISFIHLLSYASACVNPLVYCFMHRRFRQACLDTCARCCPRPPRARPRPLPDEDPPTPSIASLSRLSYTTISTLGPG
Text: The parietal cells of the gastric mucous membrane are responsible for the secretion of HCl. They have specific membrane receptors which can be activated by gastrin and which have been defined as gastrin receptors or type-B cholecystokinin (CCK-B) receptors. Since it has been observed that the activation of the CCK-B receptors by gastrin leads to an increase in the cytosolic levels of calcium ions, a technique involving the measurement of the increase in intracellular calcium induced by gastrin in the presence and in the absence of the compounds of the invention was used as an index of the antigastrin activity of the compounds. Rabbit gastric mucous-membrane cells were prepared by conventional techniques with the use of collagenase and pronase as digestive enzymes. The cellular preparation obtained by the enzymatic digestion was composed of parietal cells, zymogen cells and mucous-membrane cells. […] The cells were then washed and resuspended in a saline solution buffered with HEPES containing, in mM: […] Each measurement was carried out on cells in suspension (0.8×10^6 /ml) at a thermostatically-controlled temperature of 37° C. and with constant magnetic stirring. The fluorescence was recorded with the use of a spectrofluorometer. The operative wavelengths were 340/380 nm for excitation and 505 nm for emission. […] Biol. Chem. 260 (1985), 3440]. […] The results thus obtained for some compounds of the invention are given in Table 4, which also gives an index derived from the ratio between the peripheral antigastrin activity just described and the displacement activity found in the test on binding to the guinea-pig cortex receptors described above.

CCK-B receptors = settings: guinea-pig; Knapp et al; cited from earlier work

Compound	Ratio I/II (CCK-A IC50 / CCK-B IC50) (CCK-A)	IC50 (CCK-A)	IC50 (central CCK-B receptor)	Ratio IC50 Binding cortex / IC50 (gastric mucous cells) [2]	IC50, inhibition of the increase of cytosolic calcium [2]	inhibition of the binding of [N-methyl-N-leucine]CCK-8, result in words (central CCK-B receptor)	CCK-B-antagonistic activity IC50 (II) [2]	IC50 order of magnitude, peripheral antigastrin activity [2]	times more active than the corresponding diastereoisomer at the carbon atom (**) (central CCK-B receptor; binding, guinea-pig cortex)	ED50 [1]	antigastrin activity relative to the diastereoisomer at the carbon atom (**) ([1]; pentagastrin-induced acid secretion)	affinity for the receptors of the cortex (CCK-B) relative to those of the pancreas (CCK-A) (CCK-B receptors)
O=C(O)C[C@@H](Cc1ccccc1)NC(=O)CC[C@@H](NC(=O)c1cc(Cl)cc(Cl)c1)C(=O)N1CCC2(CCCC2)CC1 [Compound 15]	160	4800 nM	220 nM	7.3	30 nM	–	30 nM	–	1.5 times	13.5 mg/kg and 22.4 µmol/kg	–	–
O=C(CC[C@@H](NC(=O)c1cc(Cl)cc(Cl)c1)C(=O)N1CCC2(CCCC2)CC1)N[C@@H](Cc1ccccc1)C(=O)O [Compound 10]	179	35800 nM	730 nM	3.7	200 nM	–	200 nM	–	–	28.4 mg/kg and 48.3 µmol/kg	–	–
O=C(CC[C@@H](NC(=O)c1cc(Cl)cc(Cl)c1)C(=O)N1CCC2(CCCC2)CC1)N[C@@H](Cc1c[nH]c2ccccc12)C(=O)O [Compound 20]	1397	41900 nM	220 nM	7.3	30 nM	–	30 nM	–	–	10.9 mg/kg and 17.4 µmol/kg	almost the same antigastrin activity	–
non-sulphated [3-H] [N-methyl-N-leucine]CCK-8	–	–	–	–	–	–	–	–	–	–	–	approximately 4000 times

Further lines, with some results ahead:

Ratio I/II (CCK-A IC50 / CCK-B IC50) (CCK-A)	IC50 (CCK-A)	IC50 (central CCK-B receptor)	Ratio IC50 Binding cortex / IC50 (gastric mucous cells) [2]	IC50, inhibition of the increase of cytosolic calcium [2]	inhibition of the binding of [N-methyl-N-leucine]CCK-8, result in words (central CCK-B receptor)	CCK-B-antagonistic activity IC50 (II) [2]	IC50 order of magnitude, peripheral antigastrin activity [2]	times more active than the corresponding diastereoisomer at the carbon atom (**) (central CCK-B receptor; binding, guinea-pig cortex)	Compound	ED50 [1]	antigastrin activity relative to the diastereoisomer at the carbon atom (**) ([1]; pentagastrin-induced acid secretion)	affinity for the receptors of the cortex (CCK-B) relative to those of the pancreas (CCK-A) (CCK-B receptors)
160.0	4800 nM	450 nM	15.0	30 nM	–	–	–	–	O=C(CC[C@@H](NC(=O)c1cc(Cl)cc(Cl)c1)C(=O)N1CCC2(CCCC2)CC1)Nc1ccccc1C(=O)O [Compound 50]	12 mg/kg and 21.4 µmol/kg	–	–
1214	8500 nM	70 nM	10.0	7 nM	potent inhibitors	7 nM	nanomolar order of magnitude	–	O=C(CC[C@@H](NC(=O)c1cc(Cl)cc(Cl)c1)C(=O)N1CCC2(CCCC2)CC1)N[C@H](Cc1cccc2ccccc12)C(=O)O [Compound 25]	7.1 mg/kg and 11.1 µmol/kg	–	–
1837	14700 nM	100 nM	12.5	8 nM	potent inhibitors	8 nM	nanomolar order of magnitude	–	O=C(CC[C@@H](NC(=O)c1cc(Cl)cc(Cl)c1)C(=O)N1CCC2(CCCCC2)CC1)N[C@H](Cc1c[nH]c2ccccc12)C(=O)O [Compound 30]	15.2 mg/kg and 23.7 µmol/kg	–	–
